The values below are quoted from earlier work in PMC2810227, “3-O-Methylfunicone, a Selective Inhibitor of Mammalian Y-Family DNA Polymerases from an Australian Sea Salt Fungal Strain” (Marine Drugs, 2009).

The subject of data set [1] is pol α. Also on record: method as in PMID 467434. Particulars: not competing with the other three deoxynucleoside triphosphates; cited from earlier work.
Data set [2] relates to family B pols, such as pols α, δ and ɛ. Also on record: method as in PMID 467434. Particulars: cited from earlier work.

As to `C[C@@]1(CO)[C@H](O)CC[C@@]2(C)[C@H]1CC[C@H]1C[C@@H]3C[C@@]12CC[C@]3(O)CO` [aphidicolin], the “mode of inhibition of pol α with respect to individual deoxynucleoside triphosphates” value in data set [1] was “competing with dCTP”. Moreover, the “mode of inhibition with the DNA template-primer” value in data set [2] (activated DNA) is “uncompetitive”. In addition, the “mode of inhibition with respect to the dNTP substrate” value in data set [2] was “competitive”.
